Measurements published in patent publication US20080255366A1, “Crystalline Trihydrate of Zoledronic Acid” (DR. REDDY'S LABORATORIES LIMITED, priority 2005, published 2008).

Assay: solubility of crystalline zoledronic acid trihydrate compared with the monohydrate
Type: physicochemical
Details: relative to zoledronic acid monohydrate; solvent and temperature not stated

O=P(O)(O)C(O)(Cn1ccnc1)P(=O)(O)O [zoledronic acid trihydrate, (1-Hydroxy-2-imidazol-1-yl-phosphonoethyl) phosphonic acid]
solubility: substantially equal to that of the monohydrate
